Data set [1] has as its system subject with major neurocognitive disorder of the Alzheimer type, APOE4 homozygous. Put plainly: Compassionate use study (Expanded Access IND), clinical response and tolerability. In kind it is in vivo, human. The note with it: n=1. The procedure: A subject who received a diagnosis of major neurocognitive disorder of the Alzheimer type was treated with ALZ-801 as part of a compassionate use study. The subject was a APOE4 homozygous and had received standard cognitive enhancing medications and was enrolled in a trial of an amyloid immunotherapy agent, but without benefit, and had no treatment options.
The subject was orally administered ALZ-801 at a dose of 265 mg BID for approximately 14 months (61 weeks, 2 days). […] For example, their motor skills improved as they made efforts to brush their teeth, get dressed, and bathe […]. They also were able to hold a phone to their […] and was walking and eating better. They were not able or willing to do the above prior to treatment with 265 mg BID ALZ-801. Further, their mood was noticeably more cheerful and content, and their verbal communication advanced. However, by the later end of the first 12-months of treatment, the improvement in the subject's symptoms plateaued and there was a decline in their cognitive status. They became apathetic, less verbal, and could no longer follow instructions.
At 62 weeks, 6 days of treatment, the dosage of ALZ-801 was increased from 265 mg BID to 265 mg TID. Remarkably, their plateau and decline in cognition ended upon commencement of the 265 mg TID dosage regimen. They were more talkative, happier, and not only completed the tasks they accomplished while on 265 mg BID ALZ-801, but improved beyond that. They understand the context of conversation and behave in a more “normal” or “natural” manner. […] A similar plateau or decline in cognitive status as observed with an ALZ-801 dosage of 265 mg BID began to manifest approximately 12 months after the beginning of the 265 mg TID ALZ-801 dosing. The subject remained on 265 mg TID ALZ-801 for approximately three more months (15 months total) until their dosage was increased to 265 mg QID (four time a day) ALZ-801, which they have maintained for the past seven months. […] Their caretakers have noted that the patient's disposition and alertness has improved, they are more responsive, more cooperative and has improved interaction with the caretakers.

Data set [2] is described as follows: Steady-state plasma tramiprosate pharmacokinetics, expanded access subject, TID and QID. In kind it is in vivo, human. The note with it: BID vs TID vs QID, 265 mg per dose. An excerpt: The steady state pharmacokinetics of the TID and QID dosing regimen in the patient has been assayed for area under the curve (AUC) and maximum concentration (Cmax) of plasma tramiprosate (the active form of ALZ-801) and compared to BID dosing values in a population of patients in a Phase 2 human clinical trial of ALZ-801. Once the patient reaches steady state on a particular dosing regimen (any time after day 7 of a particular dosing regimen), a blood sample was collected just prior to the administration of a dose of AZL-801 and then again at 1, 2 and 4 hours post-administration of that dose. Plasma was isolated from the sample by centrifugation and the plasma samples were frozen and shipped to a bioanalytical lab for determination of tramiprosate concentrations (active moiety of ALZ-801) and calculation of AUC and Cmax. The values obtained from the plasma were then used to calculate projected brain AUC.

“Also recorded” adds a separate entry of the source.

Regarding `CC(C)[C@H](N)C(=O)NCCCS(=O)(=O)O` [ALZ-801, valyl-3-amino-1-propanesulfonic acid], the “duration of improvement and stabilization before plateau/decline” value in data set [1] (oral 265 mg BID) is recorded as “about 58 weeks”. Besides, in data set [1] (oral 265 mg QID), the “tolerability / side effects” value is listed as “well-tolerated with no associated nausea or noticeable side effects; also recorded: well tolerated”. Further, in data set [1] (oral 265 mg TID), the “time to plateau or decline in cognitive status after start of dosing” value was “approximately 12 months” and the “tolerability / side effects” value was “without out noticeable side effects; also recorded: well-tolerated”. The “dose proportionality of plasma AUC and Cmax (tramiprosate)” value in data set [2] is “dose proportional increases in plasma AUC and Cmax”.

The record behind these values is patent US20250041248A1, “ALZ-801 FOR USE IN TREATING ALZHEIMER'S DISEASE” (Alzheon, Inc., priority 2021, published 2025).
